Values after ≈ are worked out from the molar mass of the structure shown. “Also recorded” adds a separate entry of the source. Like-named read-outs stand apart in the source and are kept apart here.
Assays:
[1] = Critical aggregation concentration; format: physicochemical
in vitro [2] = format: in vitro ADME; settings: mouse, microsomes, pH 7.4
Procedure: (§1) Compounds (0.5 µM) were incubated with 0.25 mg/mL liver microsomal proteins at pH 7.4 at 37 °C. Reactions were initiated with […] and samples taken at 0, 5, 10, 15, 20 and 30 min. The reaction was stopped by addition of 95% ACN/5% MeOH containing an internal standard. Samples were combined in compound groups of six pre-sorted by mono molecular weight and analyzed by LC/MS/MS. The peak area ratios (analyte peak area/IS peak area) were converted to % remaining using the area ratio at time 0 as 100%. The. half-life (T ½) and intrinsic clearance (mCLint) were calculated.

in vivo = settings: female, Balb/c, mouse; for AUC: po, 30 mg/kg
[3] = mouse, in vivo
in vitro [4] = settings: PAMPA
in vitro [5] = format: in vitro ADME, human; settings: human, microsomes
Procedure: as §1

[6] = system: wild-type M. tuberculosis; experiment: microbe, parasite or virus in culture; format: cell-based, Mycobacterium tuberculosis; settings: for MIC: Mycobacterium tuberculosis, read-out: MIC

SMILES | critical aggregation concentration [1] [µM] | CLint scaled at 0.5 µM (in vitro [2]) [mL/min/kg] | AUC (in vivo) [ng·h/mL] | Oral AUC ([3]; female, Balb/c, po, 30 mg/kg) [ng·h/mL] | Papp (in vitro [4]) [×10⁻⁶ cm/s] | CLint scaled at 0.5 µM (in vitro [5]; pH 7.4, human Clint) [mL/min/kg] | CLint scaled at 0.5 µM (in vitro [5]; pH 7.4, in vitro human unbound microsomal clearance Clint,u) [mL/min/kg] | MIC ([6]; 120 h) [µM] | MIC [6] [µM] | half-life (in vivo; iv) [min] | absorption (in words) [3] | anti-tubercular activity (in words) [6]
O=C(NCCc1cc(Br)c(O)c(Br)c1)C1(c2ccccc2)CCC1 [PCB-2, N-(3,5-dibromo-4-hydroxyphenethyl)-1-phenylcyclobutane-1-carboxamide] | 3.3 | 1920 | 58 | 58 | 87 | 427 | 593 | 3.4 ± 0.6 (≈ 1.54 µg/mL) | 3.4 (≈ 1.54 µg/mL) |  |  | 
O=C(NCCc1cc(Br)c(O)c(Br)c1)C1(c2ccc(F)cc2)CCC1 [PCB-31, N-(3,5-dibromo-4-hydroxyphenethyl)-1-(4-fluorophenyl)cyclobutane-1-carboxamide] |  | 527 | 259 |  |  | 128 |  | 0.94 ± 0.23 (≈ 0.443 µg/mL) |  | 12 | solubility-limited absorption | good anti-TB activity; also recorded: sub-micromolar

From publication PMC9435431, “Novel chemical entities inhibiting Mycobacterium tuberculosis growth identified by phenotypic high-throughput screening” (Scientific Reports, 2022)
